“Also recorded” adds a separate entry of the source.
Target: T1, Kir3.1+Kir3.4 (Homo sapiens, UniProt P48544+P48549)
T1 sequence (P48549 1-501): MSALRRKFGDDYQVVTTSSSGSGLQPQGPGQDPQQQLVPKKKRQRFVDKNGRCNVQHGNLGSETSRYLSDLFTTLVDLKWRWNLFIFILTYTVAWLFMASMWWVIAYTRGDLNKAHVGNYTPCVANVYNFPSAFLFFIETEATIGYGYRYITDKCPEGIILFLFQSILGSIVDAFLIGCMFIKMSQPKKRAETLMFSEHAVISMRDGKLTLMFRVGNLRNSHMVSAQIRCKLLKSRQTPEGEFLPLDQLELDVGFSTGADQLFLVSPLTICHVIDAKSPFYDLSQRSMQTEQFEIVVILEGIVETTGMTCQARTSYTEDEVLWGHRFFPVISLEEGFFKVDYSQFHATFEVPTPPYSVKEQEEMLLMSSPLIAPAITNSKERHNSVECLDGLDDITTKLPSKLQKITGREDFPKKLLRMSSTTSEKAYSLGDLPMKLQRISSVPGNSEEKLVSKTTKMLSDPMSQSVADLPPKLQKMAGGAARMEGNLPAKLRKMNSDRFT
T1 sequence (P48544 1-419): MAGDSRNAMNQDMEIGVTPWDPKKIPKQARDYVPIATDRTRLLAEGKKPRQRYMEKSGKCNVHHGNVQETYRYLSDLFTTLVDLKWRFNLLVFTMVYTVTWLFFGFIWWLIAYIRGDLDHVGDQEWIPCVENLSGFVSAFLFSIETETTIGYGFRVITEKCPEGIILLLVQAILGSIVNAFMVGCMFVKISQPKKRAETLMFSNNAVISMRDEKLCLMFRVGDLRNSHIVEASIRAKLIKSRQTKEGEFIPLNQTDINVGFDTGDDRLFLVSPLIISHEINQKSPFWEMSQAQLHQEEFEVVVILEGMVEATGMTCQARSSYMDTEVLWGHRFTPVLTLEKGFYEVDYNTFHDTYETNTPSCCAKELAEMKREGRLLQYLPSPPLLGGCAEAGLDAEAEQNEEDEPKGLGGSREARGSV
Assay: Two-electrode voltage clamp in Xenopus laevis oocytes, Kir3.1+Kir3.4
Format: cell-based
Settings: BBP 10 μM, TEVC, n = 5
Protocol: cRNA was prepared from linearized plasmids using the mMESSAGE mMACHINE T7 kit (Ambion, USA) and quantified by UV spectroscopy (NanoDrop, Thermo Scientific, Wilmington, USA). Xenopus laevis oocytes were acquired from EcoCyte Bioscience (Castrop-Rauxel, Germany). Oocytes were injected with 50 nL cRNA and currents were recorded after 2 days of incubation at 19°C. Currents were recorded at a sampling rate of 10 kHz using a TEVC amplifier (Dagan CA-1B; IL, USA), and borosilicate glass recording electrodes (Module Ohm, Herlev, Denmark), made with a DMZ Universal Puller (Zeitz Instruments, Martinsried, Germany) with a resistance of 0.5–1 MΩ when filled with 2 M KCl. Oocytes were superfused with Kulori (pH 7.4) solution containing NaCl 90 mM, KCl 4 mM, MgCl2 1 mM, CaCl2 1 mM, 4-(2-hydroxyethyl)-1-piperazineethanesulfonic acid 5 mM, and currents were elicited with the voltage protocols previously indicated (Skarsfeldt et al., [2016]), from a holding potential of −80 mV. […]
To assess the effect of BBP on other calcium-activated potassium channels (hBK, hSK3 WT, rSK3 H491N, and hIK), each individual current was first normalized to its cell size using membrane's capacitance (pA/pF) before statistical analysis. […] Statistical significance between saline and the effect of both BBP and the corresponding reference compound was determined for each channel using one-way ANOVA analysis. […]

With c1cc(-c2nc3ccccc3[nH]2)nc(-c2nc3ccccc3[nH]2)c1 [BBP, 2,6-Bis(2-benzimidazolyl)pyridine] the “Effect on Kir3.1+Kir3.4 current” value was “did not have any effect; also recorded: did not significantly affect”.
